Our source for the IC50 values is patent publication US20240109900A1, “AZABICYCLIC SHP2 INHIBITORS” (IRBM S.P.A., priority 2021, published 2024).

Assay [1] has as its target SHP-2 enzyme (Met1-Leu525) (Homo sapiens (Human), UniProt Q06124). The experiment in a line: SHP2 inhibition enzymatic assay. Conditions: 0.5 nM SHP-2 activated by 500 nM IRS1 peptide, 75 μM DiFMUP substrate; read-out: SHP2wt-IC50. The class given is biochemical. The protocol:
The assay was performed as described in YP Chen et al, Nature (535)2016. Assay volume of 20 μL/well was assembled in 384 well black polystyrene low-binding microplates (Greiner), using the following buffer: 60 mM HEPES pH 7.2, 75 mM NaCl, 75 mM KCl, 1 mM EDTA pH 8, 0.05% tween-20, 5 mM DTT. The SHP-2 enzyme (synthetized by Origene, Met1-Leu525, cat #TP750155) was used at a final concentration of 0.5 nM. The enzyme was activated by 500 nM IRS1 peptide (sequence: H2N-LN(pY)IDLDLV(dPEG8)LST(pY)ASINFQK-amide SEQ ID No. 1) and incubated with 75 μM DiFMUP (Sigma) as substrate.
Briefly, DMSO serially diluted testing compounds were transferred to the bottom of the assay plate. SHP2 was then added together with the IRS1 peptide. 30 min post incubation, the DiFMUP substrate was added to the reaction and incubated 30 min at room temperature. Finally 5 μL of 160 μM bpV (Potassium bisperoxo[1,10-phenanthroline]oxovanadate [V], Sigma) were added to stop and quench the reaction. The fluorescence was detected by a microplate reader (Envision, PerkinElmer) according to the DiFMUP excitation and emission wavelength. The lower the fluorescence the higher the SHP2 inhibition. […] The percentage inhibition is fitted against the compound dilutions with a four-parameter logistic regression. The inflection point (i.e. the concentration at which half-maximal inhibition is achieved) is the IC50.

The subject of assay [2] is ERK phosphorylation in KYSE-520 cells. Briefly: Phospho-ERK cellular assay. The class given is cell-based. The settings on record: Homo sapiens, KYSE-520, 2 h, KYSE-520 cells, 2 h at 37° C., phospho-ERK1/2 (Thr202/Tyr204) TR-FRET; read-out: PERK IC50. As to the method:
ERK phosphorylation was detected using the “Advanced phospho-ERK1/2 (Thr202/Tyr204)” TR-FRET kit (Cisbio, Cat #64AERPEG/H), following the manufacturer reagents and instructions.
Briefly, 20.000/well KYSE-520 cells (DSMZ ACC 371) were plated in 6 μL RPMI-1640 (Invitrogen) growth medium, into 384 white low-volume high base TC microplates (Greiner). After an overnight incubation, cells were treated with DMSO serial diluted compounds and incubated for 2 h at 37° C. After incubation, 2 μL/well of 4×Lysis Buffer (Cisbio 64KL1FDF), were added and incubated with cells for 30 min on gentle shaking. Finally, lysates were added with 2 μL/well of Eu cryptate (donor) and D2 (acceptor) conjugated antibodies (as provided by the Cisbio kit #64AERPEG/H) diluted 1:100 in Detection Buffer (as provided by the Cisbio kit #64AERPEG/H). Plates were then sealed and incubated at room temperature in the dark. After an overnight incubation, the TR-FRET signal was detected on a suitable reader (Envision, PerkinElmer). The lower the TR-FRET signal the higher the higher the SHP2 inhibition in cells.
The activity of each compound dilution was calculated as percentage between vehicle DMSO treated cells and no cells, 0% inhibition and 100% inhibition respectively. The percentage activity is fitted against the compound dilutions with a four-parameter logistic regression. The inflection point (i.e. the concentration at which half-maximal inhibition is achieved) is the IC50.

One may read the IC50 as the point on the concentration scale where inhibition reaches its midpoint.

Sequence of SHP-2 enzyme (Met1-Leu525) (Q06124 1-525): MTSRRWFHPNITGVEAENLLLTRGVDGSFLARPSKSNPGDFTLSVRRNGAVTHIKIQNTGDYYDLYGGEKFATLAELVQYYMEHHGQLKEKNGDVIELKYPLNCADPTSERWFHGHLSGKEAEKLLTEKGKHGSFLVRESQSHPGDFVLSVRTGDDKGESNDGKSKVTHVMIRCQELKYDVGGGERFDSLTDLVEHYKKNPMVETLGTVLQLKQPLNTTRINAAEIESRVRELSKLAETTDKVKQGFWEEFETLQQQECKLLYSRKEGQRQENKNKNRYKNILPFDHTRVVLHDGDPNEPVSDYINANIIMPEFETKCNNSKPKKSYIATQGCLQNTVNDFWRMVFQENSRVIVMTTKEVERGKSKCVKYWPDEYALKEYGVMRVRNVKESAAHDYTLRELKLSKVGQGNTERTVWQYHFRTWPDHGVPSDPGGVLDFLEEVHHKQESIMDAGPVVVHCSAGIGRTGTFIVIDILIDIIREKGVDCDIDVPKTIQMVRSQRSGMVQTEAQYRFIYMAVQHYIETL

Consider `NC[C@@]1(c2ccccc2F)C2CCN(c3ccc4nc(Sc5ccnc(N)c5Cl)ccc4n3)CC21` (stereo in doubt) [Example 387, 4-((6-((1R,6S,7S)-7-(aminomethyl)-7-(2-fluorophenyl)-3-azabicyclo[4.1.0]heptan-3-yl)-1,5-naphthyridin-2-yl)thio)-3-chloropyridin-2-amine], for which the IC50 was below 0.5 µM in assay [1] and below 1 µM in assay [2].

Consider `Cc1nc(N2CCC3C(C2)C3(CN)c2ccsc2)c(CO)nc1-c1cccc(Cl)c1Cl` (stereo not drawn) [Example 1, [3-[7-(aminomethyl)-7-(thiophen-3-yl)-3-azabicyclo[4.1.0]heptan-3-yl]-6-(2,3-dichlorophenyl)-5-methylpyrazin-2-yl]methanol], for which the IC50 in assay [1] is below 0.5 µM; in assay [2], above 5 µM.

As to `NCC1(c2cccnc2)C2CCN(c3cnc4c(-c5cccc(Cl)c5Cl)n[nH]c4n3)CC21` (stereo not drawn) [Example 2, [3-[3-(2,3-dichlorophenyl)-1H-pyrazolo[3,4-b]pyrazin-6-yl]-7-(pyridin-3-yl)-3-azabicyclo[4.1.0]heptan-7-yl]methanamine], the IC50 in assay [1] was below 0.5 µM; in assay [2] it was below 1 µM.

For `NCC1(c2ccccc2F)C2CCN(c3cnc4c(-c5cccc(Cl)c5Cl)n[nH]c4n3)CC21` (stereo not drawn) [Example 3, (3-(3-(2,3-dichlorophenyl)-1H-pyrazolo[3,4-b]pyrazin-6-yl)-7-(2-fluorophenyl)-3-azabicyclo[4.1.0]heptan-7-yl)methanamine], the IC50 in assay [1] is below 0.5 µM; in assay [2], below 1 µM.

Take `NCC1(c2ccccc2F)C2CCN(c3cnc4c(-c5cccc6ccsc56)n[nH]c4n3)CC21` (stereo not drawn) [Example 4, (3-(3-(benzo[b]thiophen-7-yl)-1H-pyrazolo[3,4-b]pyrazin-6-yl)-7-(2-fluorophenyl)-3-azabicyclo[4.1.0]heptan-7-yl)methanamine]: the half-maximal inhibitory concentration (IC50) in assay [1] is below 0.5 µM; in assay [2], 1 to 5 µM.

In the case of `NCC1(c2ccccc2F)C2CCN(c3cnc4c(-c5cccc6ncccc56)n[nH]c4n3)CC21` (stereo not drawn) [Example 5, (7-(2-fluorophenyl)-3-(3-(quinolin-5-yl)-1H-pyrazolo[3,4-b]pyrazin-6-yl)-3-azabicyclo[4.1.0]heptan-7-yl)methanamine], the IC50 in assay [1] is below 0.5 µM; in assay [2], below 1 µM.

For the compound `Cc1cc(C2(CN)C3CCN(c4cnc5c(-c6cccc(Cl)c6Cl)n[nH]c5n4)CC32)on1` (stereo not drawn) [Example 6, (3-(3-(2,3-dichlorophenyl)-1H-pyrazolo[3,4-b]pyrazin-6-yl)-7-(3-methylisoxazol-5-yl)-3-azabicyclo[4.1.0]heptan-7-yl)methanamine], the half-maximal inhibitory concentration (IC50) was below 0.5 µM in assay [1] and below 1 µM in assay [2].

With `NCC1(c2cccc(F)c2)C2CCN(c3cnc4c(-c5cccc(Cl)c5Cl)n[nH]c4n3)CC21` (stereo not drawn) [Example 7, (3-(3-(2,3-dichlorophenyl)-1H-pyrazolo[3,4-b]pyrazin-6-yl)-7-(3-fluorophenyl)-3-azabicyclo[4.1.0]heptan-7-yl)methanamine], the half-inhibitory concentration (IC50) in assay [1] was below 0.5 µM; in assay [2], below 1 µM.

On to `Cc1cc(C2(CN)C3CCN(c4cnc5c(-c6cccc(Cl)c6Cl)n[nH]c5n4)CC32)no1` (stereo not drawn) [Example 8, (3-(3-(2,3-dichlorophenyl)-1H-pyrazolo[3,4-b]pyrazin-6-yl)-7-(5-methylisoxazol-3-yl)-3-azabicyclo[4.1.0]heptan-7-yl)methanamine], for which the values for the IC50 in assay [1] and in assay [2] were below 0.5 µM and below 1 µM, respectively.

On to `Cc1cc(C2(CN)C3CCN(c4cnc5c(-c6cccc7ncccc67)n[nH]c5n4)CC32)no1` (stereo not drawn) [Example 9, (7-(5-methylisoxazol-3-yl)-3-(3-(quinolin-5-yl)-1H-pyrazolo[3,4-b]pyrazin-6-yl)-3-azabicyclo[4.1.0]heptan-7-yl)methanamine], for which the figures for the IC50 in assay [1] and in assay [2] were below 0.5 µM and below 1 µM, respectively.

For the compound `NCC1(c2ccc(F)cc2)C2CCN(c3cnc4c(-c5cccc(Cl)c5Cl)n[nH]c4n3)CC21` (stereo not drawn) [Example 10, (3-(3-(2,3-dichlorophenyl)-1H-pyrazolo[3,4-b]pyrazin-6-yl)-7-(4-fluorophenyl)-3-azabicyclo[4.1.0]heptan-7-yl)methanamine], the half-inhibitory concentration (IC50) was below 0.5 µM in assay [1] and below 1 µM in assay [2].

On to `NCC1(c2ccc(F)cc2)C2CCN(c3cnc4c(-c5ccc6nccnc6c5)n[nH]c4n3)CC21` (stereo not drawn) [Example 11, (7-(4-fluorophenyl)-3-(3-(quinoxalin-6-yl)-1H-pyrazolo[3,4-b]pyrazin-6-yl)-3-azabicyclo[4.1.0]heptan-7-yl)methanamine], for which the IC50 in assay [1] is below 0.5 µM; in assay [2], above 5 µM.

In the case of `NCC1(c2ccc(F)cc2)C2CCN(c3cnc4c(-c5cccc6cccnc56)n[nH]c4n3)CC21` (stereo not drawn) [Example 12, (7-(4-fluorophenyl)-3-(3-(quinolin-8-yl)-1H-pyrazolo[3,4-b]pyrazin-6-yl)-3-azabicyclo[4.1.0]heptan-7-yl)methanamine], the IC50 in assay [1] is 0.5 to 3 µM; in assay [2], above 5 µM.

For the compound `Cn1cc(C2(CN)C3CCN(c4cnc5c(-c6cccc(Cl)c6Cl)n[nH]c5n4)CC32)nn1` (stereo not drawn) [Example 13, (3-(3-(2,3-dichlorophenyl)-1H-pyrazolo[3,4-b]pyrazin-6-yl)-7-(1-methyl-1H-1,2,3-triazol-4-yl)-3-azabicyclo[4.1.0]heptan-7-yl)methanamine], the figures for the half-inhibitory concentration (IC50) in assay [1] and in assay [2] were below 0.5 µM and below 1 µM, respectively.

Consider `Cc1conc1C1(CN)C2CCN(c3cnc4c(-c5cccc(Cl)c5Cl)n[nH]c4n3)CC21` (stereo not drawn) [Example 14, (3-(3-(2,3-dichlorophenyl)-1H-pyrazolo[3,4-b]pyrazin-6-yl)-7-(4-methylisoxazol-3-yl)-3-azabicyclo[4.1.0]heptan-7-yl)methanamine], for which the half-maximal inhibitory concentration (IC50) in assay [1] was below 0.5 µM; in assay [2] it was below 1 µM.

Consider `Cc1conc1C1(CN)C2CCN(c3cnc4c(-c5ccc6nn(C)cc6c5Cl)n[nH]c4n3)CC21` (stereo not drawn) [Example 15, (3-(3-(4-chloro-2-methyl-2H-indazol-5-yl)-1H-pyrazolo[3,4-b]pyrazin-6-yl)-7-(4-methylisoxazol-3-yl)-3-azabicyclo[4.1.0]heptan-7-yl)methanamine], for which the IC50 in assay [1] is below 0.5 µM; in assay [2], below 1 µM.

As to `CNc1nccc(-c2n[nH]c3nc(N4CCC5C(C4)C5(CN)c4ccccc4F)cnc23)c1Cl` (stereo not drawn) [Example 16, 4-(6-(7-(aminomethyl)-7-(2-fluorophenyl)-3-azabicyclo[4.1.0]heptan-3-yl)-1H-pyrazolo[3,4-b]pyrazin-3-yl)-3-chloro-N-methylpyridin-2-amine], the IC50 is below 0.5 µM in assay [1] and below 1 µM in assay [2].

For the compound `CNc1nccc(-c2n[nH]c3nc(N4CCC5C(C4)C5(CN)c4cc(C)on4)cnc23)c1Cl` (stereo not drawn) [Example 17, 4-(6-(7-(aminomethyl)-7-(5-methylisoxazol-3-yl)-3-azabicyclo[4.1.0]heptan-3-yl)-1H-pyrazolo[3,4-b]pyrazin-3-yl)-3-chloro-N-methylpyridin-2-amine], the figures for the IC50 in assay [1] and in assay [2] were below 0.5 µM and below 1 µM, respectively.

Turning to `Cc1cc(C2(CN)C3CCN(c4cnc5c(-c6ccnc7ccsc67)n[nH]c5n4)CC32)no1` (stereo not drawn) [Example 18, (7-(5-methylisoxazol-3-yl)-3-(3-(thieno[3,2-b]pyridin-7-yl)-1H-pyrazolo[3,4-b]pyrazin-6-yl)-3-azabicyclo[4.1.0]heptan-7-yl)methanamine], the IC50 in assay [1] was below 0.5 µM; in assay [2], below 1 µM.

For the compound `NC[C@]1(c2cc(F)ccc2F)[C@@H]2CCN(c3cnc4nc(-c5ccc6c(c5)CCC(=O)N6)ccc4n3)C[C@@H]21` [Example 531, 6-(2-((1S,6R,7R)-7-(aminomethyl)-7-(2,5-difluorophenyl)-3-azabicyclo[4.1.0]heptan-3-yl)pyrido[2,3-b]pyrazin-6-yl)-3,4-dihydroquinolin-2(1H)-one], in assay [1], the IC50 is below 0.5 µM.
